Measurements from US20220289715A1, “PESTICIDALLY ACTIVE PYRAZINE-AMIDE COMPOUNDS” (priority 2019, published 2022).

How the values were obtained:
Format in all cases: in vivo
[1] = test system: Plutella xylostella (Diamondback Moth); experiment: Example B9: Plutella xylostella, artificial diet, 96-well; details: 216 h, application rate of 500 ppm, eggs/L1 larvae, 9 days after infestation
Method: Example B9: Plutella xylostella (Diamondback Moth)
96-well microtiter plates containing artificial diet were treated with aqueous test solutions, prepared from 10,000 ppm DMSO stock solutions, by a liquid handling robot. After drying, eggs (˜30 per well) were infested onto a netted lid which was suspended above the diet. The eggs hatch and L1 larvae move down to the diet. The samples were assessed for mortality 9 days after infestation.
The following compounds gave an effect of at least 80% mortality at an application rate of 500 ppm: […]

[2] = test system: Plutella xylostella (Diamond Back Moth); experiment: Example B4: Plutella xylostella, artificial diet, 24-well; details: 192 h, application rate of 200 ppm, eggs, 8 days after infestation, read-out: control in at least one of the two categories (mortality or growth inhibition)
Method: Example B4: Plutella xylostella (Diamond Back Moth)
24-well microtiter plates with artificial diet were treated with aqueous test solutions prepared from 10,000 ppm DMSO stock solutions by pipetting. After drying, Plutella eggs were pipetted through a plastic stencil onto a gel blotting paper and the plate was closed with it. The samples were assessed for mortality and growth inhibition in comparison to untreated samples 8 days after infestation.
(§1) The following compounds gave an effect of at least 80% control in at least one of the two categories (mortality or growth inhibition) at an application rate of 200 ppm: […]

[3] = test system: Spodoptera littoralis (Egyptian Cotton Leaf Worm); experiment: Example B6: Spodoptera littoralis, spray on cotton leaf discs; details: foliar, 72 h, application rate of 200 ppm, L1 larvae, 3 days after infestation, read-out: control in at least one of the three categories (mortality, anti-feedant effect, or growth inhibition)
Method: Example B6: Spodoptera littoralis (Egyptian Cotton Leaf Worm)
Cotton leaf discs were placed onto agar in 24-well microtiter plates and sprayed with aqueous test solutions prepared from 10,000 ppm DMSO stock solutions. After drying the leaf discs were infested with five L1 larvae. The samples were assessed for mortality, anti-feeding effect, and growth inhibition in comparison to untreated samples 3 days after infestation. Control of Spodoptera littoralis by a test sample is given when at least one of the categories mortality, anti-feedant effect, and growth inhibition is higher than the untreated sample.

[4] = test system: Diabrotica balteata (Corn Root Worm); experiment: Example B1: Diabrotica balteata, spray on maize sprouts; details: 96 h, application rate of 200 ppm, L2 larvae, 4 days after infestation, read-out: control in at least one of the two categories (mortality or growth inhibition)
Method: Example B1: Diabrotica balteata (Corn Root Worm)
Maize sprouts placed onto an agar layer in 24-well microtiter plates were treated with aqueous test solutions prepared from 10,000 ppm DMSO stock solutions by spraying. After drying, the plates were infested with L2 larvae (6 to 10 per well). The samples were assessed for mortality and growth inhibition in comparison to untreated samples 4 days after infestation.
as §1

[5] = test system: Chilo suppressalis (Striped Rice Stemborer); experiment: Example B3: Chilo suppressalis, artificial diet; details: 144 h, application rate of 200 ppm, L2 larvae, 6 days after infestation, read-out: control in at least one of the three categories (mortality, anti-feedant effect, or growth inhibition)
Method: Example B3: Chilo suppressalis (Striped Rice Stemborer)
24-well microtiter plates with artificial diet were treated with aqueous test solutions prepared from 10,000 ppm DMSO stock solutions by pipetting. After drying, the plates were infested with L2 larvae (6-8 per well). The samples were assessed for mortality, anti-feeding effect, and growth inhibition in comparison to untreated samples 6 days after infestation. Control of Chilo suppressalis by a test sample is given when at least one of the categories mortality, anti-feedant effect, and growth inhibition is higher than the untreated sample.

CC(c1nccnc1-n1nccn1)N(CC1CC1)C(=O)c1cc(C(F)(F)F)cc(C(F)(F)F)c1 (centres unmarked) [Compound P50, N-(cyclopropylmethyl)-N-[1-[3-(triazol-2-yl)pyrazin-2-yl]ethyl]-3,5-bis(trifluoromethyl)benzamide]
≥ 80%: mortality at 500 ppm [1] | percent control (mortality or growth inhibition) at 200 ppm [2] | percent control (mortality, anti-feedant effect or growth inhibition) at 200 ppm [3] | percent control (mortality or growth inhibition) at 200 ppm [4]

Cc1cnn(-c2nccnc2C(C)NC(=O)c2cc(C(F)(F)F)cc(C(F)(F)F)c2)n1 (centres unmarked) [Compound P1, N-[1-[3-(4-methyltriazol-2-yl)pyrazin-2-yl]ethyl]-3,5-bis(trifluoromethyl)benzamide]
≥ 80%: mortality at 500 ppm [1] | percent control (mortality or growth inhibition) at 200 ppm [2] | percent control (mortality, anti-feedant effect or growth inhibition) at 200 ppm [5]

CC(NC(=O)c1cc(C2CC2)cc(C(F)(F)F)c1)c1nccnc1-n1nccn1 (centres unmarked) [Compound P15, 3-cyclopropyl-N-[1-[3-(triazol-2-yl)pyrazin-2-yl]ethyl]-5-(trifluoromethyl)benzamide]
≥ 80%: mortality at 500 ppm [1] | percent control (mortality or growth inhibition) at 200 ppm [2] | percent control (mortality, anti-feedant effect or growth inhibition) at 200 ppm [5] | percent control (mortality, anti-feedant effect or growth inhibition) at 200 ppm [3] | percent control (mortality or growth inhibition) at 200 ppm [4]

CC(NC(=O)c1cc(OCC(F)(F)F)cc(C(F)(F)F)c1)c1nccnc1-n1nccn1 (centres unmarked) [Compound P8, N-[1-[3-(triazol-2-yl)pyrazin-2-yl]ethyl]-3-(2,2,2-trifluoroethoxy)-5-(trifluoromethyl)benzamide]
≥ 80%: percent control (mortality or growth inhibition) at 200 ppm [2] | percent control (mortality, anti-feedant effect or growth inhibition) at 200 ppm [5] | percent control (mortality, anti-feedant effect or growth inhibition) at 200 ppm [3] | percent control (mortality or growth inhibition) at 200 ppm [4]

CC(NC(=O)c1cc(C(F)(F)F)cc(C(F)(F)F)c1)c1nccnc1-n1nnc2ccccc21 (centres unmarked) [Compound P51, N-[1-[3-(benzotriazol-1-yl)pyrazin-2-yl]ethyl]-3,5-bis(trifluoromethyl)benzamide]
≥ 80%: mortality at 500 ppm [1] | percent control (mortality or growth inhibition) at 200 ppm [2]

CC(NC(=O)c1cc(C2CC2C(F)(F)F)cc(C(F)(F)F)c1)c1nccnc1-n1nccn1 (centres unmarked) [Compound P9, N-[1-[3-(triazol-2-yl)pyrazin-2-yl]ethyl]-3-(trifluoromethyl)-5-[2-(trifluoromethyl)cyclopropyl]benzamide]
≥ 80%: mortality at 500 ppm [1] | percent control (mortality or growth inhibition) at 200 ppm [2] | percent control (mortality, anti-feedant effect or growth inhibition) at 200 ppm [5] | percent control (mortality, anti-feedant effect or growth inhibition) at 200 ppm [3] | percent control (mortality or growth inhibition) at 200 ppm [4]

CC(NC(=O)c1cc(F)cc(Cl)c1)c1nccnc1-n1nccn1 (centres unmarked) [Compound P25, 3-chloro-5-fluoro-N-[1-[3-(triazol-2-yl)pyrazin-2-yl]ethyl]benzamide]
≥ 80%: mortality at 500 ppm [1] | percent control (mortality or growth inhibition) at 200 ppm [2] | percent control (mortality or growth inhibition) at 200 ppm [4]

Cc1cnc(C(C)NC(=O)c2cc(C(F)(F)F)cc(C(F)(F)F)c2)c(-n2nccn2)n1 (centres unmarked) [Compound P18, N-[1-[5-methyl-3-(triazol-2-yl)pyrazin-2-yl]ethyl]-3,5-bis(trifluoromethyl)benzamide]
≥ 80%: percent control (mortality or growth inhibition) at 200 ppm [2] | percent control (mortality, anti-feedant effect or growth inhibition) at 200 ppm [5]

CO/N=C(\C)c1cnn(-c2nccnc2C(C)NC(=O)c2cc(C(F)(F)F)cc(C(F)(F)F)c2)n1 (centres unmarked) [Compound P54, N-[1-[3-[4-[(E)-N-methoxy-C-methyl-carbonimidoyl]triazol-2-yl]pyrazin-2-yl]ethyl]-3,5-bis(trifluoromethyl)benzamide]
≥ 80%: percent control (mortality or growth inhibition) at 200 ppm [2] | percent control (mortality, anti-feedant effect or growth inhibition) at 200 ppm [3] | percent control (mortality or growth inhibition) at 200 ppm [4]

CC(NC(=O)c1cc(C(F)(F)F)cc(C(F)(F)F)c1)c1nccnc1-n1ccnn1 (centres unmarked) [Compound P44, N-[1-[3-(triazol-1-yl)pyrazin-2-yl]ethyl]-3,5-bis(trifluoromethyl)benzamide]
≥ 80%: percent control (mortality or growth inhibition) at 200 ppm [2] | percent control (mortality, anti-feedant effect or growth inhibition) at 200 ppm [5] | percent control (mortality, anti-feedant effect or growth inhibition) at 200 ppm [3] | percent control (mortality or growth inhibition) at 200 ppm [4]

Cc1cc(C)cc(C(=O)NC(C)c2nccnc2-n2nccn2)c1 (centres unmarked) [Compound P24, 3,5-dimethyl-N-[1-[3-(triazol-2-yl)pyrazin-2-yl]ethyl]benzamide]
≥ 80%: mortality at 500 ppm [1]

CC(=O)c1cn(-c2nccnc2C(C)NC(=O)c2cc(C(F)(F)F)cc(C(F)(F)F)c2)nn1 (centres unmarked) [Compound P55, N-[1-[3-(4-acetyltriazol-1-yl)pyrazin-2-yl]ethyl]3,5-bis(trifluoromethyl)benzamide]
≥ 80%: percent control (mortality or growth inhibition) at 200 ppm [2] | percent control (mortality, anti-feedant effect or growth inhibition) at 200 ppm [5]

CC(NC(=O)c1cc(C(F)(F)F)cc(C(F)(F)F)c1)c1nccnc1-n1cc(C#N)cn1 (centres unmarked) [Compound P47, N-[1-[3-(4-cyanopyrazol-1-yl)pyrazin-2-yl]ethyl]-3,5-bis(trifluoromethyl)benzamide]
≥ 80%: percent control (mortality or growth inhibition) at 200 ppm [2] | percent control (mortality, anti-feedant effect or growth inhibition) at 200 ppm [5] | percent control (mortality, anti-feedant effect or growth inhibition) at 200 ppm [3] | percent control (mortality or growth inhibition) at 200 ppm [4]

Cc1cn(-c2nccnc2C(C)NC(=O)c2cc(C(F)(F)F)cc(C(F)(F)F)c2)nn1 (centres unmarked) [Compound P41, N-[1-[3-(4-methyltriazol-1-yl)pyrazin-2-yl]ethyl]-3,5-bis(trifluoromethyl)benzamide]
≥ 80%: mortality at 500 ppm [1] | percent control (mortality or growth inhibition) at 200 ppm [2] | percent control (mortality, anti-feedant effect or growth inhibition) at 200 ppm [5] | percent control (mortality, anti-feedant effect or growth inhibition) at 200 ppm [3]

CC(=O)c1cnn(-c2nccnc2C(C)NC(=O)c2cc(C(F)(F)F)cc(C(F)(F)F)c2)n1 (centres unmarked) [Compound P57, N-[1-[3-(4-acetyltriazol-2-yl)pyrazin-2-yl]ethyl]-3,5-bis(trifluoromethyl)benzamide]
≥ 80%: percent control (mortality or growth inhibition) at 200 ppm [2] | percent control (mortality, anti-feedant effect or growth inhibition) at 200 ppm [5]

CC(NC(=O)c1cc(C(F)(F)F)cc(C(F)(F)F)c1)c1nccnc1-n1ncc(I)n1 (centres unmarked) [Compound P53, N-[1-[3-(4-iodotriazol-2-yl)pyrazin-2-yl]ethyl]-3,5-bis(trifluoromethyl)benzamide]
≥ 80%: percent control (mortality or growth inhibition) at 200 ppm [2] | percent control (mortality, anti-feedant effect or growth inhibition) at 200 ppm [5] | percent control (mortality, anti-feedant effect or growth inhibition) at 200 ppm [3] | percent control (mortality or growth inhibition) at 200 ppm [4]

CC(NC(=O)c1cc(C(F)(F)F)cc(C(F)(F)F)c1)c1nccnc1-n1cccn1 (centres unmarked) [Compound P45]
≥ 80%: percent control (mortality or growth inhibition) at 200 ppm [4]

CC(c1nccnc1-n1cncn1)N(CC1CC1)C(=O)c1cc(C(F)(F)F)cc(C(F)(F)F)c1 (centres unmarked) [Compound P48, N-(cyclopropylmethyl)-N-[1-[3-(1,2,4-triazol-1-yl)pyrazin-2-yl]ethyl]-3,5-bis(trifluoromethyl)benzamide]
≥ 80%: mortality at 500 ppm [1] | percent control (mortality or growth inhibition) at 200 ppm [2] | percent control (mortality, anti-feedant effect or growth inhibition) at 200 ppm [3] | percent control (mortality or growth inhibition) at 200 ppm [4]

CC(NC(=O)c1cc(C(F)(F)F)cc(C(F)(F)F)c1)c1nccnc1-n1cc(C2CC2)nn1 (centres unmarked) [Compound P42, N-[1-[3-(4-cyclopropyltriazol-1-yl)pyrazin-2-yl]ethyl]-3,5-bis(trifluoromethyl)benzamide]
≥ 80%: mortality at 500 ppm [1] | percent control (mortality or growth inhibition) at 200 ppm [2] | percent control (mortality, anti-feedant effect or growth inhibition) at 200 ppm [5] | percent control (mortality, anti-feedant effect or growth inhibition) at 200 ppm [3]

COc1cc(C(=O)NC(C)c2nccnc2-n2nccn2)cc(Cl)n1 (centres unmarked) [Compound P32, 2-chloro-6-methoxy-N-[1-[3-(triazol-2-yl)pyrazin-2-yl]ethyl]pyridine-4-carboxamide]
≥ 80%: mortality at 500 ppm [1]
